For 1 compound, inhibition results are on record in patent US10335382B2, “Use of hydrogen sulfide synthesis inhibitors for cancer therapy” (THE BOARD OF REGENTS OF THE UNIVERSITY OF TEXAS SYSTEM, priority 2013, dated 2019).

Structures are written as SMILES.

The experiment has as its target T1, CBS (Homo sapiens, UniProt P35520).
T1 sequence (P35520 1-551): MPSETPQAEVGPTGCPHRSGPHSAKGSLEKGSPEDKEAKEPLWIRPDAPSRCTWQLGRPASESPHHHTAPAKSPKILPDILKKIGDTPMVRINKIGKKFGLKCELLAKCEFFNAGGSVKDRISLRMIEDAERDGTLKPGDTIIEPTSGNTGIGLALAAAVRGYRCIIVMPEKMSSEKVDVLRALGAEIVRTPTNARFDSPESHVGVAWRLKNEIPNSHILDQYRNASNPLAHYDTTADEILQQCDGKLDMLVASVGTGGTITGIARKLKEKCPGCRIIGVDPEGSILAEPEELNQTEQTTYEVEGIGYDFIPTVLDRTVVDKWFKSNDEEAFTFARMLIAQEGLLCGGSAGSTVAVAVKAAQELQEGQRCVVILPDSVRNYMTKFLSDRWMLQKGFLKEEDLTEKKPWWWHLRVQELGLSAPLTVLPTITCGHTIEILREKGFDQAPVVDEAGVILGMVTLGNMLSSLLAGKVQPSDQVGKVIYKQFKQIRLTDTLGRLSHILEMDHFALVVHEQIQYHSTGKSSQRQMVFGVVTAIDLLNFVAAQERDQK
The experiment can be described thus: CBS inhibitor screen: H2S production by recombinant CBS (methylene blue assay). The note with it: 100 μM; homocysteine-induced H2S production; LOPAC library screen; read-out: Inhibition of CBS activity at 100 μM. Also on record: These studies used full-length human CBS enzyme; made in house; host or cells: E. coli BL21 (DE3) Codon Plus. Format: biochemical. The source says: Studies have been performed characterizing, in detail, the specificity and selectivity of all known H2S biosynthesis inhibitors, using recombinant CBS and CSE enzymes. These studies used full-length human CBS enzyme, and a colorimetric ‘capture’ reaction of the H2S produced by these enzymes, an assay generally known as the ‘methylene blue assay’. This assay is used in a 96-well plate format, as well as in combination with a second screening method based on a fluorescent dye.
Human recombinant CBS is expressed as described (Asimakopoulou et al, (2013) Br J Pharmacol. 169(4):922-32). A library of pharmacologically active compounds (e.g., LOPAC library, Sigma; 1240 compounds) is tested on homocysteine-induced H2S production. In certain aspects the assay is in a 96-well format. In certain aspects H2S production is measured by the methylene blue assay (Asimakopoulou et al., (2013) Br J Pharmacol. 169(4):922-32).
Plasmids, bacterial strains and media. E. coli BL21 (DE3) Codon Plus is used as a host strain to express recombinant human CSE or CBS. CSE cDNA was cloned into pGEX-4T3 and CBS into pGEX-Kg to create N-terminal GSH-S-transferase (GST) fusion proteins. The expression vectors were transformed and plated on LB-agar plates, supplemented with ampicillin (100 μg/mL).
The expression and purification of CSE and CBS is performed as described previously with modifications (Frank et al., (2008) Arch Biochem Biophys 470:64-72; Huang et al., (2009) J Mol Biol 396: 708-18). Briefly, BL21(DE3) Codon Plus cells containing either the expression vector pGEX-4T3/GST-CSE or pGEX-Kg/GST-CBS are grown at 37° C. and 180 r.p.m. in LB broth medium containing 100 μg/mL ampicillin to an absorption of 0.6-0.8 at 600 nm. In addition, 0.3 mM d-ALA is added to the culture containing pGEX-Kg/GST-CBS. Then protein expression is induced by addition of 0.1 mM IPTG. Cells containing pGEX-4T-3/GST-CSE are incubated overnight at 18° C., whereas cells containing pGEXKg/GST-CBS are incubated overnight at 30° C. Culture is then centrifuged at 4° C. and 5000×g for 10 min and the cell pellet was resuspended in PBS (140 mM NaCl, 2.7 mM KCl, 10 mM Na2HPO4, 1.8 mM KH2PO4, pH 7.8) and stored at −20° C. overnight. After thawing, the suspension is sonicated in lysis buffer containing PBS and protease inhibitor cocktail for GST-CSE and PBS, 5 mM DTT, 1% Triton X-100, […] and protease inhibitor cocktail for GST-CBS. After centrifugation at 4° C. for 30 min, the soluble fraction containing either the GST-CSE or the GST-CBS recombinant protein is loaded onto a GSTrap FF 1 mL affinity column that has been equilibrated with binding buffer PBS. The column was consecutively washed with five column volumes of binding buffer. Proteins attached to the column, including GST-CSE or GST-CBS recombinant proteins, are eluted with five column volumes of elution buffer (50 mM Tris-HCl, 10 mM reduced GSH, pH 8.0) and then dialysed and concentrated in 10 mM sodium phosphate buffer pH 8.2 and DTT 1 mM. The purity of the recombinant enzymes was checked by SDS-PAGE on 12% polyacrylamide gels after staining of protein bands with Coomassie Blue R-250. Protein concentration was determined using the DC protein assay kit.
H2S determination is performed according to Stipanuk and Beck ((1982) Biochem J 206:267-77) with some modifications. In the case of the CSE enzyme, an assay consist of a 100 μL reaction mixture containing 5 μg of the purified CSE enzyme, 0.01 mM PLP, 1 mM L-cys, and 50 mM sodium phosphate buffer pH 8.2. For the CBS enzyme, the reaction mixture contains the same as for the CSE plus 1 mM homocysteine. The inhibitors can be added to the reaction before L-cys is added to the solution. Reactions are initiated by transferring the reaction solutions from ice to a 37° C. shaking water bath. After incubation at 37° C. the reaction is terminated by adding 1% ZnAc to trap H2S followed by 10% TCA to precipitate proteins. […]

Turning to `NOCC(=O)O` [AOAA, aminooxyacetic acid], the inhibition (as a rule, the relative decrease from the control value, in per cent) at 100 µM is 98%.
